Experimental findings from patent publication US10590118B2, “Bicyclic heterocyclic derivatives as bromodomain inhibitors” (Orion Corporation, priority 2014, dated 2020) are described below.

In the test the target is T1, Bet bromodomain protein (BRD4) (Homo sapiens, UniProt O60885).
T1 construct: made in house
The test can be described thus: Bet bromodomain TR-FRET assay. Type of test: binding. As to conditions: 300 nM acetyl histone peptide substrate, results given as Group A/B/C. As to the method: In-Vitro Biochemical Data of bicyclic heterocyclic derivatives in time-resolved fluorescence resonance energy transfer (TR-FRET) assay.
The Bet brommodomain TR-FRET assay has been used to identify compounds that bind to bet bromodomain and prevent its interaction with acetylated histone peptides.
In the assay, optimized concentration of in-house Bet bromodomain protein (BRD4) and 300 nM of acetyl histone peptide substrate were diluted in assay buffer (50 mM HEPES, pH: 7.5, 50 mM NaCl, 500 μM CHAPS) and were added to the positive control and test control wells in a 384 well plate. Substrate control wells have 300 nM of acetyl histone peptide substrate diluted in assay buffer. Buffer blank wells were added with assay buffer. The reaction mixture was allowed for incubation at room temperature for 30 mins. Stock solutions of test compounds at 20 mM DMSO are prepared. Compounds are serially diluted and added to the test wells in 384-well polypropylene plates. The reaction mixture was further incubated for 30 mins at room temperature on a plate shaker. 2 nM of Europium labeled streptavidn and 10 nM of XL-665 labeled antibody diluted in detection buffer (50 mM HEPES, pH: 7.5, 50 mM NaCl, 500 μM CHAPS and 800 mM KF) were added to all the wells excluding the buffer blank wells. The reaction plate was incubated for additional 30 mins at room temperature on plate shaker. The plate was read in Perkin Elmer WALLAC 1420 Multilabel Counter Victor 3 (Ex: 340 nm Em: 615 and 665 nm). The amount of displacement of the peptide was measured as ratio of specific 665 nm energy transfer signal to 615 nm signals. The compounds IC50 was determined by fitting the dose response data to sigmoid curve fitting equation using Graph Pad Prism software V5.

Molecules are shown by their SMILES. Where a name gives a salt, the structure may show the parent alone. Bounds are passed on as bounds.

What is called IC50 is the concentration needed to halve the response being measured. A higher IC50 goes with a need for much substance. Turning to `COc1cc2c(cc1-c1c(C)noc1C)cc(C)c(=O)n2Cc1ccccn1` [Compound 50, 6-(3,5-dimethylisoxazol-4-yl)-7-methoxy-3-methyl-1-(pyridin-2-ylmethyl)quinolin-2(1H)-one], the concentration for half-maximal inhibition (IC50) is at most 1000 nM. Next, `CCCCOc1cc2c(ccc(=O)n2Cc2ccccn2)cc1-c1c(C)noc1C` [Compound 78, 7-butoxy-6-(3,5-dimethylisoxazol-4-yl)-1-(pyridin-2-ylmethyl)quinolin-2(1H)-one]: at most 1000 nM. As for `COc1cc2c(cc1-c1c(C)noc1C)cc(C1CCCCC1)c(=O)n2Cc1cccnc1` [Compound 69, 3-cyclohexyl-6-(3,5-dimethylisoxazol-4-yl)-7-methoxy-1-(pyridin-3-ylmethyl)quinolin-2(1H)-one], the figure is at most 1000 nM; as for `COc1cc2c(cc1-c1c(C)noc1C)OCCN2Cc1ccc(Cl)cc1` [Compound 1, 4-(4-chlorobenzyl)-7-(3,5-dimethylisoxazol-4-yl)-6-methoxy-3,4-dihydro-2H-benzo[b][1,4]oxazine], at most 1000 nM. `COc1cc2c(cc1-c1c(C)noc1C)OCC(=O)N2C(C)c1ccc(Cl)cc1` (single isomer, unassigned) [Compound 34, 4-(1-(4-chlorophenyl)ethyl)-7-(3,5-dimethylisoxazol-4-yl)-6-methoxy-2H-benzo[b][1,4]oxazin-3(4H)-one]: the IC50 was at most 1000 nM.

Consider `Cc1noc(C)c1-c1cc2ccc(=O)n(Cc3ccccn3)c2cc1OCCC1CCNC1` (centres unmarked) [Compound 89, 6-(3,5-dimethylisoxazol-4-yl)-1-(pyridin-2-ylmethyl)-7-(2-(pyrrolidin-3-yl)ethoxy)quinolin-2(1H)-one hydrochloride], for which the half-maximal inhibitory concentration (IC50) was at most 1000 nM. Next, `COc1cc2c(ccc(=O)n2Cc2ccccn2)cc1-c1conc1C` [Compound 64, 7-methoxy-6-(3-methylisoxazol-4-yl)-1-(pyridin-2-ylmethyl)quinolin-2(1H)-one]: at most 1000 nM.

Turning to `Cc1noc(C)c1-c1cc2ccc(=O)n(Cc3ccccn3)c2cc1OCc1ccncc1` [Compound 83, 6-(3,5-dimethylisoxazol-4-yl)-1-(pyridin-2-ylmethyl)-7-(pyridin-4-ylmethoxy)quinolin-2(1H)-one], the IC50 is at most 1000 nM. As for `COc1cc2c(ccc(=O)n2Cc2ccccn2)cc1-n1c(C)c[nH]c1=O` [Compound 91, 7-methoxy-6-(5-methyl-2-oxo-2,3-dihydro-1H-imidazol-1-yl)-1-(pyridin-2-ylmethyl)quinolin-2(1H)-one], the figure is over 3000 nM; as for `COc1cc2c(ccc(=O)n2Cc2ccc(Cl)cn2)cc1-c1c(C)noc1C` [Compound 37, 1-((5-chloropyridin-2-yl)methyl)-6-(3,5-dimethylisoxazol-4-yl)-7-methoxyquinolin-2(1H)-one], at most 1000 nM; as for `COc1cc2c(cc1-c1c(C)noc1C)ncc(=O)n2Cc1ccccn1` [Compound 93, 6-(3,5-dimethylisoxazol-4-yl)-7-methoxy-1-(pyridin-2-ylmethyl)quinoxalin-2(1H)-one], at most 1000 nM.

`COc1cc2c(cc1-c1c(C)noc1C)cc(C)c(=O)n2Cc1ccc(Cl)cn1` [Compound 58, 1-((5-chloropyridin-2-yl)methyl)-6-(3,5-dimethylisoxazol-4-yl)-7-methoxy-3-methylquinolin-2(1H)-one] had an IC50 of at most 1000 nM. Compound `Cc1noc(C)c1-c1cc2ccc(=O)n(Cc3ccccn3)c2cc1OCCN1CCCC1` [Compound 81, 6-(3,5-dimethylisoxazol-4-yl)-1-(pyridin-2-ylmethyl)-7-(2-(pyrrolidin-1-yl)ethoxy)quinolin-2(1H)-one] displayed an IC50 of 1000 to 3000 nM. As for `COc1cc2c(cc1-c1c(C)noc1C)CC(C)(C)C(=O)N2Cc1ccccn1` [Compound 52, 6-(3,5-dimethytisoxazol-4-yl)-7-methoxy-3,3-dimethyl-1-(pyridin-2-ylmethyl)-3,4-dihydroquinolin-2(1H)-one], the figure is over 3000 nM. Consider `COc1cc2c(cc1-c1c(C)noc1C)OCC(=O)N2C(C)c1ccc(Cl)cc1` (single isomer, unassigned) [Compound 33, 4-(1-(4-chlorophenyl)ethyl)-7-(3,5-dimethylisoxazol-4-yl)-6-methoxy-2H-benzo[b][1,4]oxazin-3(4H)-one], for which the IC50 was in the range of 1000 to 3000 nM.

Consider `COc1cc2c(ccc(=O)n2Cc2ccc(F)cn2)cc1-c1c(C)noc1C` [Compound 45, 6-(3,5-dimethylisoxazol-4-yl)-1-((5-fluoropyridin-2-yl)methyl)-7-methoxyquinolin-2(1H)-one], for which the IC50 is at most 1000 nM. As for `COc1cc2c(cc1-c1c(C)noc1C)OCC(=O)N2Cc1ccc(Cl)cc1` [Compound 18, 4-(4-chlorobenzyl)-7-(3,5-dimethylisoxazol-4-yl)-6-methoxy-2H-benzo[b][1,4]oxazin-3(4H)-one], the figure is at most 1000 nM; as for `COc1cc2c(cc1-c1c(C)noc1C)CCC(=O)N2Cc1ccc(Cl)cc1` [Compound 5, 1-(4-chlorobenzyl)-6-(3,5-dimethyisoxazol-4-yl)-7-methoxy-3,4-dihydroquinolin-2(1H)-one], at most 1000 nM. As for `Cc1noc(C)c1-c1cc2ccc(=O)n(Cc3ccccn3)c2cc1OCCN(C)C` [Compound 76, 7-(2-(dimethylamino)ethoxy)-6-(3,5-dimethylisoxazol-4-yl)-1-(pyridin-2-ylmethyl)quinolin-2(1H)-one], the figure is over 3000 nM; as for `COc1cc2c(cc1-c1c(C)noc1C)CCC(=O)N2Cc1ccccn1` [Compound 10, 6-(3,5-dimethylisoxazol-4-yl)-7-methoxy-1-(pyridin-2-ylmethyl)-3,4-dihydroquinolin-2(1H)-one], at most 1000 nM; as for `COc1cc2c(cc1-c1c(C)noc1C)OCC(=O)N2Cc1ccc(C)nc1` [Compound 32, 7-(3,5-dimethylisoxazol-4-yl)-6-methoxy-4-((6-methylpyridin-3-yl)methyl)-2H-benzo[b][1,4]oxazin-3(4H)-one], at most 1000 nM. As for `COc1cc2c(cc1-c1c(C)noc1C)cc(C1CCCCC1)c(=O)n2Cc1ccccn1` [Compound 68, 3-cyclohexyl-6-(3,5-dimethylisoxazol-4-yl)-7-methoxy-1-(pyridin-2-ylmethyl)quinolin-2(1H)-one], the figure is at most 1000 nM; as for `COc1cc2c(ccc(=O)n2Cc2cnccn2)cc1-c1c(C)noc1C` [Compound 8, 6-(3,5-dimethylisoxazol-4-yl)-7-methoxy-1-(pyrazin-3-ylmethyl)quinolin-2(1H)-one], at most 1000 nM. `C=CCOc1cc2c(ccc(=O)n2Cc2ccccn2)cc1-c1c(C)noc1C` [Compound 79, 7-(allyloxy)-6-(3,5-dimethylisoxazol-4-yl)-1-(pyridin-2-ylmethyl)quinolin-2(1H)-one] returned an IC50 of at most 1000 nM. Next, `COc1cc2c(cc1-c1c(C)noc1C)c(C(F)(F)F)cc(=O)n2Cc1ccccn1` [Compound 54, 6-(3,5-dimethytisoxazol-4-yl)-7-methoxy-1-(pyridin-2-ylmethyl)-4-(trifluoromethyl)quinolin-2(1H)-one]: over 3000 nM. In the case of `COc1cc2c(cc1-c1c(C)noc1C)c(C)cc(=O)n2Cc1ccccn1` [Compound 53, 6-(3,5-dimethylisoxazol-4-yl)-7-methoxy-4-methyl-1-(pyridin-2-ylmethyl)quinolin-2(1H)-one], the concentration for half-maximal inhibition (IC50) is 1000 to 3000 nM.

Consider `COc1cc2c(cc1-c1c(C)noc1C)OCC(=O)N2Cc1ccc(F)cn1` [Compound 29, 7-(3,5-dimethylisoxazol-4-yl)-4-((5-fluoropyridin-2-yl)methyl)-6-methoxy-2H-benzo[b][1,4]oxazin-3(4H)-one], for which the IC50 is at most 1000 nM. Regarding `COc1cc2c(ccc(=O)n2Cc2ccccn2)cc1-n1c(C)nnc1C` [Compound 3, 6-(3,5-dimethyl-4H-1,2,4-triazol-4-yl)-7-methoxy-1-(pyridin-2-ylmethyl)quinolin-2(1H)-one], the IC50 was over 3000 nM.

`COc1ccc(Cn2c(=O)ccc3cc(-c4c(C)noc4C)c(OC)cc32)nc1` [Compound 2, 6-(3,5-dimethytisoxazol-4-yl)-7-methoxy-1-((5-methoxypyridin-2-yl)methyl)quinolin-2(1H)-one] came in with an IC50 of at most 1000 nM. Next, `COc1cc2c(ccc(=O)n2Cc2ccc(Cl)nc2)cc1-c1c(C)noc1C` [Compound 67, 1-((6-chloropyridin-3-yl)methyl)-6-(3,5-dimethylisoxazol-4-yl)-7-methoxyquinolin-2(1H)-one]: at most 1000 nM; `Cc1noc(C)c1-c1cc2ccc(=O)n(Cc3ccccn3)c2cc1OC(F)(F)F` [Compound 85, 6-(3,5-dimethylisoxazol-4-yl)-1-(pyridin-2-ylmethyl)-7-(trifluoromethoxy)quinolin-2(1H)-one]: 1000 to 3000 nM. As for `COc1cc2c(cc1NS(=O)(=O)c1c(C)noc1C)OCC(=O)N2Cc1ccc(Cl)cc1` [Compound 13, N-(4-(4-chlorobenzyl)-6-methoxy-3-oxo-3,4-dihydro-2H-benzo[b][1,4]oxazin-7-yl)-3,5-dimethylisoxazole-4-sulfonamide], the figure is over 3000 nM.
